SMILES strings stand for the structures. pIC50: −log10 of the molar value.

T1 sequence (Q8NER1 whole entry): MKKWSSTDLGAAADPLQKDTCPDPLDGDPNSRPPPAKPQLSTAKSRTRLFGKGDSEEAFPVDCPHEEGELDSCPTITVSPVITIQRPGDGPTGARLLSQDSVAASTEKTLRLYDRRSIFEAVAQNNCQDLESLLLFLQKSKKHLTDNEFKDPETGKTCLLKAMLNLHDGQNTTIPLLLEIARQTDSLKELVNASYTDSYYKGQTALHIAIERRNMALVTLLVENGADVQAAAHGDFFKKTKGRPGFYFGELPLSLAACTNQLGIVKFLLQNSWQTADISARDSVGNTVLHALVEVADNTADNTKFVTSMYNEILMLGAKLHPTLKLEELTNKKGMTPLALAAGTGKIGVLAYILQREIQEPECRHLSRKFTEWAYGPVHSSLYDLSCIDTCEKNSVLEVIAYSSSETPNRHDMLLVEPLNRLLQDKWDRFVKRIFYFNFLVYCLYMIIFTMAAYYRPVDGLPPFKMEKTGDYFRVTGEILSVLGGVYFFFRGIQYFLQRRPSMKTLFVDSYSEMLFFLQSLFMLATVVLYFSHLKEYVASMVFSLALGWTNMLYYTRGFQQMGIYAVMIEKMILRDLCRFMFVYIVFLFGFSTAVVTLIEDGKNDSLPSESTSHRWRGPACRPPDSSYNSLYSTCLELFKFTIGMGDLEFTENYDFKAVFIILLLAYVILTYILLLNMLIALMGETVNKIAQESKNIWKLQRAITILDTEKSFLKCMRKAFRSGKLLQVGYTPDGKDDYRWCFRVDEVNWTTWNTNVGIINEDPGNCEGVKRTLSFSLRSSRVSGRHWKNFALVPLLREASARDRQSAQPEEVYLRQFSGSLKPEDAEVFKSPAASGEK

The first experiment addresses T1, human VR1 (Homo sapiens, UniProt Q8NER1).
T1 construct: expressed in transfected cells
The experiment in a line: Capsaicin-induced Ca2+ influx in the human VR1-transfected CHO cell line (Assay 1). The experiment is classed as cell-based.
Details: not given
On the procedure: [Measurement of Capsaicin-Induced Ca^2+ Influx in the Human VR1-Transfected CHO Cell Line] (Assay 1)
(1) Establishment of the Human VR1-CHOluc9aeq Cell Line
The cloned hVR1 cDNA was constructed with pcDNA3 vector and transfected into a CHOluc9aeq cell line. The cell line contains aequorin and CRE-luciferase reporter genes as read-out signals. The transfectants were cloned by limiting dilution in selection medium (DMEM/F12 medium (Gibco BRL) supplemented with 10% FCS, 1.4 mM Sodium pyruvate, 20 mM HEPES, 0.15% Sodium bicarbonate, 100 U/ml penicillin, 100 μg/ml streptomycin, 2 mM glutamine, non-essential amino acids and 2 mg/ml G418). Ca^2+ influx was examined in the capsaicin-stimulated clones. […] The human VR1-CHOluc9aeq cells were maintained in the selection medium and passaged every 3-4 days at 1-2.5×10^5 cells/flask ([…]).
(2) Measurement of Ca^2+ Influx Using FDSS-3000
Human VR1-CHOluc9aeq cells were suspended in a culture medium which is the same as the selection medium except for G418 and seeded at a density of 1,000 cells per well into 384-well plates (black walled clear-base/Nalge Nunc International). […] After washing twice with assay buffer the cells were incubated with a test compound or vehicle for 20 min at 25° C. […] Integral R was calculated and compared with controls.
Consider `COc1cc(CNC(=O)Nc2ccc(Oc3ccccc3)cc2)ccc1O` [Example 76], for which the pIC50 is > 7.00.

Still in this experiment, the particulars now being: human VR1-CHOluc9aeq cells, 10 nM capsaicin; compound purity about 40 to 90%; read-out: hVR1 class.
On to `O=C(NCc1ccc(Cl)c(Cl)c1)Nc1ccc(F)cc1` [Example 44], for which the pIC50 was 6.30 to 7.00. On to `CSc1cccc(NC(=O)NCc2cccc(F)c2)c1` [Example 45], for which the pIC50 is 6.00 to 6.30. With `O=C(NCc1cccc(F)c1)Nc1ccccc1` [Example 46], the pIC50 is 6.00 to 6.30. Still for that read-out and setting: next, `COc1cccc(NC(=O)NCc2cccc(F)c2)c1` [Example 47]: 6.00 to 6.30. Still for that read-out and setting: next, `O=C(NCc1cccc(F)c1)Nc1ccc(F)cc1` [Example 48]: 6.00 to 6.30; `CSc1cccc(NC(=O)NCc2ccc(F)c(F)c2)c1` [Example 49]: 6.00 to 6.30. As for `O=C(NCc1ccc(F)c(F)c1)Nc1ccccc1` [Example 50], the pIC50 was 6.00 to 6.30. In the case of `COc1cccc(NC(=O)NCc2ccc(F)c(F)c2)c1` [Example 51], the pIC50 is 6.00 to 6.30. On the same count and under the same terms, the result for `O=C(NCc1ccc(F)c(F)c1)Nc1ccc(F)cc1` [Example 52] reads 6.00 to 6.30. The same measure, in the same setting: next, `COc1cc(CNC(=O)Nc2cccc(C(C)=O)c2)ccc1O` [Example 59]: 6.00 to 6.30; `COC(=O)c1ccccc1NC(=O)NCc1ccc(O)c(OC)c1` [Example 61]: 6.00 to 6.30; `COc1cc(CNC(=O)Nc2ccc([N+](=O)[O-])cc2Cl)ccc1O` [Example 67]: 6.00 to 6.30. On the same count and under the same terms, the result for `COc1cc(CNC(=O)NCc2ccc(Br)cc2)ccc1O` [Example 68] reads 6.30 to 7.00; that for `COc1cc2c(cc1O)CN(C(=O)Nc1ccc(Cl)c(C(F)(F)F)c1)CC2` [Example 69], 6.30 to 7.00. In the case of `COc1cc(CNC(=O)Nc2ccccc2F)ccc1O` [Example 75], the pIC50 is 6.30 to 7.00. On the same count and under the same terms, the result for `COc1cc(CNC(=O)NCCc2ccccc2)ccc1O` [Example 77] reads 6.30 to 7.00.

As for `COc1cc(CNC(=O)Nc2ccccc2Cl)ccc1O` [Example 79], the pIC50 was 6.30 to 7.00. On the same count and under the same terms, next, `COc1cc(CNC(=O)Nc2cc(C(F)(F)F)ccc2Cl)ccc1O` [Example 80]: > 7.00. Consider `COc1cc(CNC(=O)Nc2cccc(Cl)c2)ccc1O` [Example 81], for which the pIC50 is > 7.00.

For the compound `NS(=O)(=O)c1ccc2c(c1)CN(C(=O)Nc1ccc(Cl)c(C(F)(F)F)c1)CC2` [Example 84], the pIC50 is 6.30 to 7.00.

Regarding `CNS(=O)(=O)c1ccc2c(c1)CN(C(=O)Nc1ccc(Cl)c(C(F)(F)F)c1)CC2` [Example 85], the pIC50 was 6.00 to 6.30.

Take `CN(C)S(=O)(=O)c1ccc2c(c1)CN(C(=O)Nc1ccc(Cl)c(C(F)(F)F)c1)CC2` [Example 86]: the pIC50 is 6.00 to 6.30.

Turning to `CN(C)CCNS(=O)(=O)c1ccc2c(c1)CN(C(=O)Nc1ccc(Cl)c(C(F)(F)F)c1)CC2` [Example 87], the pIC50 was 6.00 to 6.30.

In the case of `CN(C)S(=O)(=O)c1ccc2c(c1)CN(C(=O)Nc1ccc(Oc3ccccc3)cc1)CC2` [Example 88], the pIC50 is 6.00 to 6.30. Same read-out and setting: the result for `O=C(Nc1ccc(Oc2ccccc2)cc1)N1CCc2ccc(S(=O)(=O)N3CCN(CCO)CC3)cc2C1` [Example 89] reads 6.00 to 6.30; that for `CS(=O)(=O)Nc1ccc2c(c1)CN(C(=O)NCc1ccc(Br)cc1)CC2` [Example 90], 6.00 to 6.30; that for `CS(=O)(=O)Nc1ccc2c(c1)CN(C(=O)Nc1ccc(Oc3ccccc3)cc1)CC2` [Example 91], 6.00 to 6.30.

For the compound `CS(=O)(=O)Nc1ccc2c(c1)CN(C(=O)Nc1ccc(Cl)c(C(F)(F)F)c1)CC2` [Example 92], the pIC50 was 6.30 to 7.00.

With `CS(=O)(=O)Nc1ccc2c(c1)CN(C(=O)Nc1ccc(Br)cc1)CC2` [Example 93], the pIC50 is 6.00 to 6.30. For `O=C(Nc1ccc(Cl)c(C(F)(F)F)c1)NC1CCCc2ccc([N+](=O)[O-])cc21` (stereo not drawn) [Example 94], the pIC50 was 6.00 to 6.30. As to `CNS(=O)(=O)c1ccc2c(c1)CN(C(=O)Nc1ccc(Oc3ccccc3)cc1)CC2` [Example 95], the pIC50 was 6.00 to 6.30. Same read-out and setting: the result for `CC(=O)Nc1ccc2c(c1)C(NC(=O)Nc1ccc(Cl)c(C(F)(F)F)c1)CCC2` (stereo not drawn) [Example 97] reads 6.00 to 6.30.

For the origin of these results see patent US20050154230A1, “Urea derivatives” (Bayer HealthCare AG, priority 2001, published 2005).
